Where two headings read alike, the source gives them in different places. {Fluorescein} = fluorescein label
Legend:
[1] = Vesicle size distribution of hairpin TFD complexes (Malvern Nanosizer); format: physicochemical; settings: TFD complexes containing hairpin TFD SA SIG and the delivery compound
Protocol: To prepare delivery complexes, 10 mg of compound was suspend in 12.5 ml of 5 mM Hepes pH7.5 (final concentration 0.8 mg/ml) and dissolved by sonication (30×30 s on, 30 s off, on ice at 10μ). Absorbance of the resulting solution was measured at 327 nm to establish an accurate concentration. 12.5 μl delivery compound was mixed with 40 μl 10 μM TFD and 447.5 μl 5 mM Hepes (pH7.5) and sonicated in an ice bath using an MSE 150 Soniprep attached with a microprobe. Thirty cycles of sonication were performed with 30 s on (with 50% power, approximately 10μ) and 30 s off.
The size distributions of the formed vesicles were measured using a Malvern Nanosizer using standard methodology and are set out in Table 3 below: […]

[2] = system: TFD; assay: SYBR Green-DNA binding assay: binding of bolasomes to TFDs; settings: at the concentrations used for sC7 bolasomes; 2 μg TFD/ml
Protocol: To determine the proportion of TFDs being bound by the vesicles, a SYBR-green binding assay was used. TFD complexes were formed as described above in Hepes buffer with the adaptation that the buffer contained 5 μl of a 1 in 10 dilution of SYBR Green I dye (Invitrogen, 10,000× stock prepared in DMSO). Fluorescence was measured (λEX 497 nm, λEM 520 nm) to determine how much bolasome needed to be added to quench the binding of SYBR Green to the TFDs.
SYBR-Green I dye binds specifically to double-stranded DNA and, as it does, gives a strong fluorescent signal. By measuring the change in signal in the presence of different concentrations and types of bolasome, it was possible to calculate the minimum amount of bolasome needed to quench the SYBR-Green binding, due to the dye being excluded by the bolasomes. This was achieved by extrapolation from the linear portion of a titration curve that plotted amount of bolasome added to fluorescent signal. […] At these concentrations no quenching was seen by the monomeric C7.

[3] = Weissig et al. (2006) J. Liposome Res. 16: 249-264, cited from earlier work
[4] = Weissig et al. 2001 S. T. P. Pharma Sci. 11: 91-96, Table I; cited from earlier work
[5] = system: Staphylococcus aureus EMRSA 16; assay: Tissue burden study, mouse sepsis model; format: in vivo; settings: Dwass-Steel-Chritchlow-Fligner, all pairwise comparisons
Protocol: Animals were treated in groups of since mice per treatment group, therefore forty eight animals were used in total for the study. Two 10 ml cultures of Staphylococcus aureus EMRSA 16 were prepared and placed on orbital shaker (220 rpm) overnight at 37° C. The following day, the Staphylococcus aureus EMRSA 16 cultures were removed from shaker, pelleted and washed twice before being resuspended in saline to an OD of 0.132 (1.5×10^8 cfu/ml). This stock solution of Staphylococcus aureus EMRSA 16 was then further diluted 1:1.5 in saline (1×10^8 cfu/ml) i.e. 2.0×10^7 bacteria per mouse.
All forty eight mice were then infected with 0.2 ml of the 1.0×10^8/ml suspension by intravenous injection into mouse tail vein. The number of Staphylococcus aureus EMRSA 16 bacteria per ml in the remainder of the suspensions after inoculation was also counted to confirm infection load.
Mice were treated 1, 9 and 17 hours post infection with either compound or vehicle, though vancomycin was only administered after 1 h.
After 25 hours post infection, all animals were weighed and then euthanised. […] Organ homogenates were quantitatively cultured onto CLED agar and incubated at 37° C. for up to 3 days and colonies counted. The data from the culture burdens was analysed by the Kruskal-Wallis test using Stats Direct. […]

[6] = system: EMRSA-15; assay: Growth assay, TFDs delivered by antibacterial peptides; format: cell-based, S. aureus; settings: for bacterial growth of EMRSA-15, agent alone: TFD alone or Gramicidin alone; for bacterial growth of EMRSA-15, agent alone / bacterial growth of EMRSA-15, TFD with Gramicidin: LB media; for bacterial growth of EMRSA-15, TFD with Gramicidin: 1 μg DB-TFD with 150 ng/ul of Gramicidin; for growth of EMRSA-15, TFD mixed with Buforin II: 96 well plate in vitro assay
Protocol: The following antibacterial peptides were assayed for their ability to deliver TFDs to bacterial cells: Gramicidin, Polymyxin nonapeptide (both purchased from Sigma Aldrich) and Buforin II (Park et al. (2000) Proc. Natl. Acad. Sci. USA 97: 8245-8250). Typically 1 μg of the Sig DB-TFDs and SigScr DB-TFD as described in Example 1 were mixed with between 0.2 and 5 μg of Gramicidin in a total volume of 5 μl 50 mM NaCl. Of this, 1 μl was added to 200 μl of LB broth inoculated with a 1/100 dilution of a glycerol stock of EMRSA-15 at an original density of 0.3 OD (Absorbance at 600 nm) and aliquoted into a well of a 96 well plate. Experiments were performed in triplicate. The plates were incubated at 37° C. with shaking and absorbance readings (at […]) were taken using a plate reader.

[7] = system: MRSA strain, EMRSA-15; assay: Fluorescence microscopy of uptake of labelled oligonucleotide; format: cell-based, S. aureus; settings: delivered in Buforin II-derivatised complexes formed with Compound 7; overnight growth
Protocol: Derivatised TFD complexes were formed as described, with the exception that the TFD was substituted with a fluorescently labelled oligonucleotide, Tef, that contained a fluorescein dye at the 5′ end. The sequence of the oligonucleotide was:
The derivatised complexes are added to 200 μl of LB broth inoculated with the MRSA strain, EMRSA-15, and grown overnight with shaking at 37° C. The following morning, cells were harvested by centrifugation and washed four times in an equal volume of PBS. A drop of the bacterial suspension was placed on a microscope slide and air dried. Cells were then heat-fixed by passing the slide through a Bunsen flame. The slide was then flooded with a solution of Loeffler's methylene blue (5 mg/ml methylene blue in 69:30:1 (v/v) solution of water:methanol: 1% (w/v) KOH) and allowed to stand for 1 min, after which the excess solution was washed off with water and the cells visualised using a Cairn CCD Fluorescence Microscope.

Molecule: Nc1c2c([n+](CCCCCCCCCCCC[n+]3c4c(c(N)c5ccccc53)CCCC4)c3ccccc13)CCCC2.[Cl-].[Cl-] [Compound 7_12, 10,10′-(dodecane-1,12-diyl)bis(9-amino-1,2,3,4-tetrahydroacridinium)dichloride]
- Vesicle size distribution (nm) [1]: 117 +/− 32 nm

Molecule: Cc1cc(N)c2ccccc2[n+]1CCCCCCCCCC[n+]1c(C)cc(N)c2ccccc21 [Dequalinium, reference compound]
- Vesicle size distribution (nm) [1]: 75-820 nm

Molecule: Nc1c2c([n+](CCCCCCCCCC[n+]3c4c(c(N)c5ccccc53)CCCC4)c3ccccc13)CCCC2.[Cl-].[Cl-] [Compound 7, 10,10′-(decane-1,10-diyl)bis(9-amino-1,2,3,4-tetrahydroacridinium)dichloride]
- quenching of SYBR-Green binding [2]: no quenching
- in vitro toxicity compared to dequalinium [3]: less in vitro toxicity than dequalinium
- in vitro toxicity compared to dequalinium ([3]; listed as Compound 7 analogue): lower toxicity in vitro compared to dequalinium
- Vesicle size distribution (nm) [1]: 139 +/− 35 nm
- published size distribution of the vesicles [4]: 169 nm

Molecule: Sig TFD: transcription factor decoy with S. aureus Sig binding site (SEQ ID NO:9), given alone at 1 nM (TTATTATATACCCATCGAAATAATTTCTAATCTTC; DNA, backbone not given here; further chemistry not fully specified; listed as Staphylococcus aureus)
- Kruskal-Wallis pairwise comparison of kidney burden vs Vancomycin [5]: <0.0001
- Kruskal-Wallis pairwise comparison of kidney burden vs Vehicle [5]: 0.9203

Molecule: Gramicidin [reference compound]
- bacterial growth of EMRSA-15, agent alone [6]: grew as well as the untreated control

Molecule: Tef: fluorescein 5′-labelled oligonucleotide, SEQ ID NO: 52, substitute for the TFD (AGGCGGCCGCGAATTCACTAGTGA; DNA, 5' {Fluorescein}, backbone not given here; listed as Staphylococcus aureus)
- uptake of labelled oligonucleotide into bacteria (fluorescence view) [7]: had been internalised

B1: Sig DB-TFD: dumbbell TFD with recognition site for S. aureus alternative sigma protein, SEQ ID NO: 30 and 31 (nucleic acid)
chain 1: CTTGGTTTTTCCAAGGAAGATTAGAAATTATTTCGATGGGTATATAATA
chain 2: CCGTCTTTTTGACGGTATTATATACCCATCGAAATAATTTCTAATCTTC
modifications: DNA, backbone not given here; phosphorylated oligos forming dumbbell with hairpin loops, further chemistry not fully specified
- bacterial growth of EMRSA-15, TFD with Gramicidin [6]: no bacterial growth
- growth of EMRSA-15, TFD mixed with Buforin II [6]: prevented growth
- bacterial growth of EMRSA-15, agent alone [6]: grew as well as the untreated control

B2: scrambled version of the DB-TFD: dumbbell TFD with scrambled Sig binding site, SEQ ID NO: 43 and 44 (nucleic acid)
chain 1: CTTGGTTTTTCCAAGTAGAAAGAAGATTTAGGGCGATTTTATAATATAT
chain 2: CCGTCTTTTTGACGGATATATTATAAAATCGCCCTAAATCTTCTTTCTA
modifications: DNA, backbone not given here; dumbbell decoy with hairpin loops
- bacterial growth of EMRSA-15, TFD with Gramicidin [6]: grew as well as the untreated control
- growth of EMRSA-15, TFD mixed with Buforin II [6]: no discernable effect on growth
